This is an account of results in ChEMBL document CHEMBL1135026, “Synthesis of fluorescent biochemical tools related to the 2-azetidinone class of cholesterol absorption inhibitors” (2002).

Each structure is given as a SMILES string.

What all share (format): functional
Assay [1] relates to Rattus norvegicus. Description: Percent inhibition of 14C]cholesterol absorption into plasma using cholesterol absorption assay in rats at the dose of 10 ug/Kg.
The test system of assay [2] is Rattus norvegicus. Nature of the assay: Percent inhibition of 14C]cholesterol absorption into plasma using cholesterol absorption assay in rats at the dose of 300 ug/Kg.
Assay [3] relates to Rattus norvegicus. Description: Percent inhibition of 14C]cholesterol absorption into plasma using cholesterol absorption assay in rats at the dose of 100 ug/Kg.
The test system of assay [4] is Rattus norvegicus. Nature of the assay: Percent inhibition of 14C]cholesterol absorption into plasma using cholesterol absorption assay in rats at the dose of 30 ug/Kg.
For assay [5], the system named is Rattus norvegicus. Nature of the assay: Percent inhibition of 14C]cholesterol absorption into plasma using cholesterol absorption assay in rats at the dose of 2000 ug/Kg.
Assay [6] has as its system Rattus norvegicus. Nature of the assay: Percent inhibition of 14C]cholesterol absorption into plasma using cholesterol absorption assay in rats at the dose of 186 ug/Kg.
Assay [7] concerns Rattus norvegicus. Nature of the assay: Percent inhibition of 14C]cholesterol absorption into plasma using cholesterol absorption assay in rats at the dose of 56 ug/Kg.
The species entered for assay [8] is Rattus norvegicus. Nature of the assay: Compound was tested for cholesterol absorption inhibition in rats by bolus injection 1 mL) via the intestinal catheter into the small intestine, by cholesterol absorption assay. The conditions noted are these: read-out: ID50 (the source's name).
Assay [9] relates to Rattus norvegicus. Nature of the assay: Percent inhibition of 14C]cholesterol absorption into plasma using cholesterol absorption assay in rats at the dose of 3 ug/Kg.

In general, inhibition in vivo refers to the share of the control response that was lost under treatment. Higher therefore signals a strong effect. `O=C(O)[C@H]1O[C@@H](Oc2ccc([C@@H]3[C@@H](CC[C@H](O)c4ccc(F)cc4)C(=O)N3c3ccc(F)cc3)cc2)[C@H](O)[C@@H](O)[C@@H]1O` returned an inhibition in vivo at 0.01 mg/kg in the assay on Rattus norvegicus [1] of 91%.

In turn, `Cc1cc(C)n(B(F)F)c1/C=C1/C=CC(CCC(=O)NCC#Cc2ccc(N3C(=O)[C@H](CC[C@H](O)c4ccc(F)cc4)[C@H]3c3ccc(O[C@@H]4O[C@H](C(=O)O)[C@@H](O)[C@H](O)[C@H]4O)cc3)cc2)=N1` had an inhibition in vivo at 0.3 mg/kg with Rattus norvegicus [2] of 92%. In addition, in the assay with Rattus norvegicus [3], 0.1 mg/kg produced 80% inhibition in vivo. Besides, at 0.03 mg/kg the inhibition in vivo in the assay on Rattus norvegicus [4] was 58%.

`COc1ccc([C@@H]2[C@@H](CCCc3ccccc3)C(=O)N2c2ccc(OC)cc2)cc1` [SCH-48461] displayed an inhibition in vivo at 2 mg/kg in the assay on Rattus norvegicus [5] of 95%.

Molecule `O=C(O)[C@H]1O[C@@H](Oc2ccc([C@@H]3[C@@H](CC[C@H](O)c4ccc(F)cc4)C(=O)N3c3cccc4nsnc34)cc2)[C@H](O)[C@@H](O)[C@@H]1O` gave an inhibition in vivo at 0.1 mg/kg in the assay on Rattus norvegicus [3] of 85%. This molecule also gave an inhibition in vivo at 0.03 mg/kg with Rattus norvegicus [4] of 83%. The same molecule returned an inhibition in vivo at 0.01 mg/kg in the assay on Rattus norvegicus [1] of 66%.

In turn, `O=C(CCCCCNC(=O)c1ccc(-c2c3ccc(=O)cc-3oc3cc(O)ccc23)c(C(=O)O)c1)NCC#Cc1ccc(N2C(=O)[C@H](CC[C@H](O)c3ccc(F)cc3)[C@H]2c2ccc(O[C@@H]3O[C@H](C(=O)O)[C@@H](O)[C@H](O)[C@H]3O)cc2)cc1` gave an inhibition in vivo at 0.186 mg/kg with Rattus norvegicus [6] of 88%. The same molecule came in with an inhibition in vivo at 0.03 mg/kg in the assay on Rattus norvegicus [4] of 85%. This molecule yielded an inhibition in vivo at 0.056 mg/kg in the assay on Rattus norvegicus [7] of 79%.

As for `O=C1[C@H](CC[C@H](O)c2ccc(F)cc2)[C@@H](c2ccc(O)cc2)N1c1ccc(F)cc1` [EZETIMIBE], the ED50 in the assay filed under Rattus norvegicus [8] is 1.6 µg/kg. Further, at 0.003 mg/kg the inhibition in vivo in the assay on Rattus norvegicus [9] was 63%. Besides, the inhibition in vivo at 0.01 mg/kg in the assay with Rattus norvegicus [1] turned out to be 74%.
